The values below come from PubChem BioAssay AID1963952 (Xavier Lab, Infectious Disease and Microbiome Program, …, 2024).

Each structure is given as a SMILES string. Activity calls are given as the source filed them. How the calls were made is not given here.

In this assay the target is Peptidyl-prolyl cis-trans isomerase FKBP1A (Homo sapiens) (UniProt P62942). The assay can be described thus: ligand binding to FKBP1A protein – biochemical, TR-FRET, dose response (AID 1963952). As to conditions: FKBP12 binding.
Chain of Peptidyl-prolyl cis-trans isomerase FKBP1A (Homo sapiens) (P62942 whole entry, looked up): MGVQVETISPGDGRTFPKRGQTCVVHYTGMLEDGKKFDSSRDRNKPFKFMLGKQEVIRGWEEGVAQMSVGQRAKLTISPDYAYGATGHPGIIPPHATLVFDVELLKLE
`CC(=O)N1[C@@H]2CC[C@H]1CC(Nc1nc(NCCc3sc(N)nc3C)nc(N3CCn4ncnc4C3)n1)C2` (stereo not given in full): the result was inactive.
Take `CCC(C)(C)C(=O)C(=O)N1CCCC[C@H]1C(=O)O[C@H](CCc1ccccc1)C(=O)N1[C@@H]2CC[C@H]1CC(Nc1nc(NCCc3sc(N)nc3C)nc(N3CCn4ncnc4C3)n1)C2` (stereo not given in full): the EC50 (in general, the concentration needed to bring the measured effect to its halfway point) is 17.1 µM.
Consider `CCC(C)(C)C(=O)C(=O)N1CCCC[C@H]1C(=O)N[C@H](CCc1ccc(OC)cc1)C(=O)N1[C@@H]2CC[C@H]1CC(Nc1nc(NCCc3sc(N)nc3C)nc(NCc3ccnc(CO)c3)n1)C2` (stereo not given in full), for which the concentration for a half-maximal effect (EC50) is 36.8 µM.
As to `CCC(C)(C)C(=O)C(=O)N1CCCC[C@H]1C(=O)N[C@H](CCc1ccc(OC)cc1)C(=O)N1[C@@H]2CC[C@H]1CC(Nc1nc(NCCc3sc(N)nc3C)nc(N3CCn4ncnc4C3)n1)C2` (stereo not given in full), the EC50 is 29.5 µM.
On the same count and under the same terms, next, `CCC(C)(C)C(=O)C(=O)N1CCCC[C@H]1C(=O)N[C@H](CCc1ccc(OC)cc1)C(=O)N1[C@@H]2CC[C@H]1CC(Nc1nc(NCCc3ccccc3)nc(N3CCn4ncnc4C3)n1)C2` (stereo not given in full): 36 µM; `CCC(C)(C)C(=O)C(=O)N1CCCC[C@H]1C(=O)N[C@H](CCc1ccc(OC)cc1)C(=O)N1CC(Nc2nc(NCCc3sc(N)nc3C)nc(NCCn3cnc4ccccc43)n2)C1`: 35 µM; `CCC(C)(C)C(=O)C(=O)N1CCCC[C@H]1C(=O)N[C@H](CCc1ccc(OC)cc1)C(=O)N1[C@@H]2CC[C@H]1CC(NC(C)=O)C2` (stereo not given in full): 28.9 µM.
Same read-out and setting: then `CCC(C)(C)C(=O)C(=O)N1CCCC[C@H]1C(=O)N[C@H](CCc1ccc(OC)cc1)C(=O)N1[C@@H]2CC[C@H]1CC(Nc1nc(NCCc3sc(N)nc3C)nc(NCCn3cnc4ccccc43)n1)C2` (stereo not given in full), with 18.4 µM.
Take `CCC(C)(C)C(=O)C(=O)N1CCCC[C@H]1C(=O)N[C@H](CCc1ccc(OC)cc1)C(=O)N1CC[C@H](Nc2nc(NCCc3sc(N)nc3C)nc(N(C)Cc3nnc4n3CCC4)n2)C1`: the EC50 is 13.3 µM.
As to `CCC(C)(C)C(=O)C(=O)N1CCCC[C@H]1C(=O)N[C@H](CCc1ccc(OC)cc1)C(=O)N1[C@@H]2CC[C@H]1CC(Nc1nc(NCCc3sc(N)nc3C)nc(N(C)Cc3nnc4n3CCC4)n1)C2` (stereo not given in full), the EC50 was 17.9 µM.
